Experimental data published in patent US20240158370A1, “CK1 alpha AND DUAL CK1 alpha / GSPT1 DEGRADING COMPOUNDS” (Innovo Therapeutics, Inc., priority 2022, published 2024).

How the values were obtained:
Format in all cases: cell-based
[1] = molecular target: GSPT1 (Homo sapiens, UniProt P15170+Q96SW2); test: HiBiT degradation assay, GSPT1, Procedure B (Molt 4_hGSPT1_HiBIT cells); design: Molt 4_hGSPT1_HiBIT N-terminus tagged cells were generated using CRISPR technology; endogenous in cells; host or cells: Molt 4 cells, CRISPR-edited; conditions: six hours
Method in brief: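 CRISPR N-terminal HiBiT-tagged Molt 4 cells at 1×10^6 cells/ml were treated 6 h at 37° C with compounds (10-point, 10 μM to 0.005 μM, 0.1% DMSO). Remaining HiBiT-GSPT1 was read by lytic luminescence; DC50 and Ymin (% remaining) from a 4-parameter fit.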

[2] = molecular target: T1, CK1α (Homo sapiens, UniProt P48729+Q96SW2); test: HiBiT degradation assay, CK1α, Procedure A; conditions: six hours
T1 construct: CSNK1A1-HiBit KI HEK293(LgBit) Cells; host or cells: HEK293(LgBit) knock-in cells
Method in brief: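 Six-hour treatment at 37° C, ten doses between 10 μM and 0.005 μM, then HiBiT lytic luminescence. Fitted DC50 and Ymin.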

[3] = test system: Z-138 cells; test: Z-138 Proliferation Assay (Cell Titer-Glo); conditions: 72 hours; for Ymin (%): % remaining (percent of DMSO control); for EC50: Homo sapiens, Cell Titer-Glo, 4-parameter curve fit
Method in brief: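 Z-138 cells (4,000 cells/well, IMDM + 10% FBS) exposed 72 h to 10-point 1:2 compound dilutions from 10,000 nM top, 0.1% DMSO. Viability read by CellTiter-Glo luminescence; EC50 from 4-parameter fit of percent of DMSO control.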

Chain of GSPT1 (P15170 whole entry): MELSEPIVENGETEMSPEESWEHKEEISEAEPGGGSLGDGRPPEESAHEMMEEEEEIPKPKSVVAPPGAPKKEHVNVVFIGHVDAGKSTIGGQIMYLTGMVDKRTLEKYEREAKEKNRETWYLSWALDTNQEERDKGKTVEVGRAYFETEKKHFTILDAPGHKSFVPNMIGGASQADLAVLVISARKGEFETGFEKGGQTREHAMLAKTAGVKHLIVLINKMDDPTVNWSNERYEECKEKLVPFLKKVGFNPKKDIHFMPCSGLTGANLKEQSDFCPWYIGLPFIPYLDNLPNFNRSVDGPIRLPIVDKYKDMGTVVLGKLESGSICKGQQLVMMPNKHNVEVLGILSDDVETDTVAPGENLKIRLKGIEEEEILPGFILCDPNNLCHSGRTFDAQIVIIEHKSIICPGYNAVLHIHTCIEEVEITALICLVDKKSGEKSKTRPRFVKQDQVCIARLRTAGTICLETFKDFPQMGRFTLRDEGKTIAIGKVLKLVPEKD
Chain of GSPT1 (Q96SW2 whole entry): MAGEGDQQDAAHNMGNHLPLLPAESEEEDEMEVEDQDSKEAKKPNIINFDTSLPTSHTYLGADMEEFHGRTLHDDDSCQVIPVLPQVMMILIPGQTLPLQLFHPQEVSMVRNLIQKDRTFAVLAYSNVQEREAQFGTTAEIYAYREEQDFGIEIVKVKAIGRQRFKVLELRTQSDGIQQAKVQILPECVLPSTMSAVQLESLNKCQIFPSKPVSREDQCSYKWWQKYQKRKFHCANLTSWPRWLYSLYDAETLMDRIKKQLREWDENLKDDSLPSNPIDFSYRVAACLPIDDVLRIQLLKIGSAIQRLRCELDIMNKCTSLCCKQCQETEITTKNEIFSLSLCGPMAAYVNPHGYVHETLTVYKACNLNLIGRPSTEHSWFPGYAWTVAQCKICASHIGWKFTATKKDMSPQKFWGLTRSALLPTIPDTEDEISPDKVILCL
Chain of GSPT1 (Q16531 whole entry partner): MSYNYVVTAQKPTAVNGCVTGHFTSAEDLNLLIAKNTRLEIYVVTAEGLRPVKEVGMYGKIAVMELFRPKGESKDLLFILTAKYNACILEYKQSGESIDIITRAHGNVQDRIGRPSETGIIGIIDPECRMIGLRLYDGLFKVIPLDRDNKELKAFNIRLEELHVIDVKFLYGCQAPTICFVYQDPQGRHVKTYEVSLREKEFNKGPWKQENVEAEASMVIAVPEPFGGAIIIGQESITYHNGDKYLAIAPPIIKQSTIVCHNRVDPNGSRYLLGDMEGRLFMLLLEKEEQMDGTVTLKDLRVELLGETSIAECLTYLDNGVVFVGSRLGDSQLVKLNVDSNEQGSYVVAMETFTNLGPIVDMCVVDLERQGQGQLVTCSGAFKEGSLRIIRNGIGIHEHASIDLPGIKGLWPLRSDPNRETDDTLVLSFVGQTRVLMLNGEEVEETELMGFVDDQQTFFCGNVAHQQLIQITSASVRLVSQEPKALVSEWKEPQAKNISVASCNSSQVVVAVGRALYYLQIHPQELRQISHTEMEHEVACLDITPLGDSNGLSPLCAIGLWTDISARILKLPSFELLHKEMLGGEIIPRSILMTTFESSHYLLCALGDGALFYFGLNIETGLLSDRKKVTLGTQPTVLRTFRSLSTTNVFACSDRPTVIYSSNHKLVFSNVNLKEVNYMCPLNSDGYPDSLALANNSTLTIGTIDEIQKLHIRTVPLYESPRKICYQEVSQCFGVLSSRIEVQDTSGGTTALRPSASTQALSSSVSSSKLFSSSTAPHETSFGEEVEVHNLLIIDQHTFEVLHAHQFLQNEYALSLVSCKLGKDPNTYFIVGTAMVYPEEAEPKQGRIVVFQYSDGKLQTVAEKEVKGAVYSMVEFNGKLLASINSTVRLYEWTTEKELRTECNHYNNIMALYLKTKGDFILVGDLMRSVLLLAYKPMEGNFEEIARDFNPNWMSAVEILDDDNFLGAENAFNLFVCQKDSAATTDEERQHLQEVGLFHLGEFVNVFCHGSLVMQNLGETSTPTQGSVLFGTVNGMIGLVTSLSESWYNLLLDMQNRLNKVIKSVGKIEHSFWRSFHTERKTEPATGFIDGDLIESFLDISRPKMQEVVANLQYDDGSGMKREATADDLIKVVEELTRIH
T1 sequence (P48729 whole entry): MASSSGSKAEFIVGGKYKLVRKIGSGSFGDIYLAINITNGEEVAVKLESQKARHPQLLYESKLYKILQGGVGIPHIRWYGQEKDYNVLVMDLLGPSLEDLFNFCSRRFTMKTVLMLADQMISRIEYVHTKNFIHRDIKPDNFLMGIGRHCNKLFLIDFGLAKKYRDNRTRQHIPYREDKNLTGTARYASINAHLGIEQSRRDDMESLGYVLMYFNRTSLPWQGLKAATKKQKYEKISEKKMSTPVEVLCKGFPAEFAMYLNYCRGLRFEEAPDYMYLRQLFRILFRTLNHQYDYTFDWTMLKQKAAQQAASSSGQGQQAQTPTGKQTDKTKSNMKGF
T1 sequence (Q96SW2 whole entry): as the sequence (Q96SW2 whole entry) above
T1 sequence (Q16531 whole entry partner): as the sequence (Q16531 whole entry partner) above

CCc1cn(-c2ccccc2)c(-c2ccc3c(c2)CN(C2CCC(=O)NC2=O)C3=O)n1 (stereo not drawn) [Example 730, 3-(5-(4-ethyl-1-phenyl-1H-imidazol-2-yl)-1-oxoisoindolin-2-yl)piperidine-2,6-dione]
DC50 [1]: < 0.025 µM | GSPT1 Ymin [1]: E (E = >25-75% remaining) | CK1α Ymin [2]: C (C = 0-10% remaining) | DC50 [2]: < 0.025 µM | Ymin (%) [3]: D (0-10% remaining) | EC50 [3]: < 0.01 µM

CC(C)c1cn(-c2ccccc2)c(-c2ccc3c(c2)CN(C2CCC(=O)NC2=O)C3=O)n1 (stereo not drawn) [Example 731, 3-(5-(4-isopropyl-1-phenyl-1H-imidazol-2-yl)-1-oxoisoindolin-2-yl)piperidine-2,6-dione]
DC50 [1]: < 0.025 µM | GSPT1 Ymin [1]: E (E = >25-75% remaining) | CK1α Ymin [2]: C (C = 0-10% remaining) | DC50 [2]: < 0.025 µM | Ymin (%) [3]: D (0-10% remaining) | EC50 [3]: < 0.01 µM

CC(C)Cc1nc(-c2ccc3c(c2)CN(C2CCC(=O)NC2=O)C3=O)c(-c2ccccc2)o1 (stereo not drawn) [Example 732, 3-(5-(2-isobutyl-5-phenyloxazol-4-yl)-1-oxoisoindolin-2-yl)piperidine-2,6-dione]
DC50 [1]: < 0.025 µM | GSPT1 Ymin [1]: F (F = >75-100% remaining) | CK1α Ymin [2]: C (C = 0-10% remaining) | DC50 [2]: < 0.025 µM | Ymin (%) [3]: D (0-10% remaining) | EC50 [3]: < 0.01 µM

CC(C)c1nc(-c2ccc3c(c2)CN(C2CCC(=O)NC2=O)C3=O)c(-c2ccccc2)o1 (stereo not drawn) [Example 733, 3-(5-(2-isopropyl-5-phenyloxazol-4-yl)-1-oxoisoindolin-2-yl)piperidine-2,6-dione]
DC50 [1]: ≥ 0.025 µM | GSPT1 Ymin [1]: F (F = >75-100% remaining) | CK1α Ymin [2]: C (C = 0-10% remaining) | DC50 [2]: < 0.025 µM | Ymin (%) [3]: D (0-10% remaining) | EC50 [3]: < 0.01 µM
